In experiment [1] the test system is TF-1 cells. Briefly: TF-1 cell proliferation assay. The class given is cell-based, human. On the procedure:
To evaluate the biological activities of two representative synthetic peptides containing the 12-mer consensus sequence, peptides ERB1-7 and ERB1-8 were tested for their ability to stimulate proliferation of the EPO-responsive cell line (TF-1).
TF-1 cells were propagated in RPMI 1640 containing 10% BCS and 5 ng/ml GM-CSF. […] Also tested as a negative control was an IL-6 peptide having the sequence […] (SEQ ID NO:87). Peptide concentrations were tested over a 1,000-fold concentration range of 0.02 to 20 μM.

Experiment [2] relates to extracellular domains of the receptors for tumor necrosis factor (TNFR). Briefly: phage binding control, TNFR extracellular domain. Particulars: results not shown.
Experiment [3] concerns the target T1, chimeric Ig-EPOR probe (Homo sapiens, UniProt P19235).
T1 construct: a fusion protein having domains corresponding to murine IgG1 and the extracellular domain (ECD) of the human EPOR; made in house; secreted into the medium
Briefly: EPOR-specific magnetic bead phage ELISA. The class given is binding. The conditions noted are these: anti-M13 detection. As to the method:
A magnetic bead ELISA protocol was used to verify that the ERB1 phage clone bound to the chimeric Ig-EPOR probe by specific interactions. The chimeric Ig-EPOR probe was bound to magnetic beads displaying rat anti-murine IgG1, substantially as described above. Samples (100 μl) of 1:2 serial dilutions (PBS and 1% BSA) of a phage lysate were combined with the beads, and the phage allowed to bind the immobilized probe for 1 hr at room temperature. Phage used in this procedure were ERB1 and two negative control phage: HPKF, a clone that binds specifically to a commercially obtained anti-IL-8 mAb, and IL6-B26, a clone that binds specifically to a human IL-6 receptor. After removing unbound phage by washing four times with 200 μl aliquots of TBST (25 mM TrisHCl, pH 7.2, 0.15 M NaCl, 0.1% TWEEN® 20), an HRP-conjugated anti-M13 detection antibody (Pharmacia) diluted 1:5,000 in PBS was added. After incubating (1 hr at room temperature), excess detection antibody was removed by washing and 10 μl for each of the washed bead complexes was transferred to microtiter wells (FALCON® 3912, MICROTEST III, Beckton Dickinson, Oxnard, Calif.) that served as reaction vessels. Each well was developed using the TMB peroxidase substrate and the extent of the peroxidase reaction measured spectrophotometrically, as described in Example 4.
(ELISA stands for enzyme-linked immunosorbent assay.)

Experiment [4] addresses T2, interleukin-6 (IL-6R) (Homo sapiens, UniProt P08887).
T2 sequence (P08887 20-365 limits assumed): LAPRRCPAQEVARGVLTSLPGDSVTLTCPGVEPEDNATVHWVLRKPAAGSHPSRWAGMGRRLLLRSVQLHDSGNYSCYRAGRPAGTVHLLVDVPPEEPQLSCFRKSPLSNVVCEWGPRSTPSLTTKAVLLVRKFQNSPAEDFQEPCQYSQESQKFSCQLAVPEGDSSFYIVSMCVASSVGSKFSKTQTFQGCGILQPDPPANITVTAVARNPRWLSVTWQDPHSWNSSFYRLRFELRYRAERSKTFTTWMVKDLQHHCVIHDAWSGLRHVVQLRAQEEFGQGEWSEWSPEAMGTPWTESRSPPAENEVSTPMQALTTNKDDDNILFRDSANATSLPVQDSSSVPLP
Briefly: phage binding control, IL-6R extracellular domain. Particulars: results not shown.

Experiment [5] concerns the target T3, chimeric Ig-EPOR protein (Homo sapiens, UniProt P19235).
T3 construct: a fusion protein having domains corresponding to murine IgG1 and the extracellular domain (ECD) of the human EPOR; made in house; secreted into the medium
Briefly: phage ELISA, relative affinities of binding clones for Ig-EPOR. The conditions noted are these: optical density per phage at 50% ERB1 maximum response × 1×10^8; ERB1 = standard. As to the method:
To better characterize the phage isolates having binding specificity for the EPOR, we compared the relative affinities of the binding clones presented in FIG. 4, using a phage ELISA procedure. Phage stocks of the binding clones were titered in triplicate to accurately determine the concentration of pfu/ml for each lysate. Different isolates were then assayed by ELISA using normalized phage concentrations so that all clones were tested using equivalent numbers of phage. Optical densities in the ELISA corresponding to the equivalent of a 50% maximum response in the ERB1 trial were next determined for each of the different phage isolates. […] The normalized relative affinity (“Rel. Aff.”) for each clone is shown to the right of the clone's peptide sequence in FIG. 4.

Experiment [6] is described as follows: Biacore analysis of binding kinetics of Ig-EPOR. The conditions noted are these: known affinity values 0.1-1.1×10^−9 k (Karlsson et al.). The source says: Contaminating bands and degradation products on the gel were minimal. […] The Ig-EPOR protein easily was recoverable in microgram amounts using the procedures described above.
For orientation: SPR reads the build-up and loss of mass on a sensor chip optically.

For experiment [7], the target named is T4, chimeric Ig-EPOR protein (human; murine, UniProt P19235 25-250).
T4 construct: extracellular domain; Secreted from COS-7 cells transfected with pcDNA3-IgG1-EPOR; major species about 59 kDa; also called IgG-EPOR; chimeric receptor; not shown: hinge region, CH2 and CH3 domains of the murine IgG1 heavy chain
T4 sequence (looked up): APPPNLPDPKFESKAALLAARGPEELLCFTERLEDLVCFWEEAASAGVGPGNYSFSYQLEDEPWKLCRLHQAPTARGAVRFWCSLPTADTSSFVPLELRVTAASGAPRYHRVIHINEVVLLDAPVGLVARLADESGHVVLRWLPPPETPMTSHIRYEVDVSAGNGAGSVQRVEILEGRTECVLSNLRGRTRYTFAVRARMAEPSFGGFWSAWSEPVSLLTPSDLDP
Briefly: peptide inhibition ELISA: Ig-EPOR binding to EPO-coated plates. The source says: (§1) Thus, the consensus 12-mer peptide sequence given by SEQ ID NO:12 likely was necessary but not sufficient to create synthetic peptides having high affinity for the EPOR.

For experiment [8], the target named is T4, chimeric Ig-EPOR protein. Briefly: peptide inhibition ELISA (Ig-EPOR binding to EPO-coated plates).
Description: as §1

Experiment [9] concerns the target T4, chimeric Ig-EPOR protein. Briefly: control in the peptide inhibition ELISA (FIGS. 6 and 7). An excerpt: Synthetic peptides having the sequences […]-[…] (SEQ ID NO:81), and […]-[…] (SEQ ID NO:82) were synthesized in the cyclic (disulfide-bonded) form using standard procedures (Peninsula Laboratories, Belmont, Calif.).

Positions of bridges follow the written chain, without caps; N, C: chain ends. No end group written: not given here.

T1 sequence (P01868 98-324 partner limits assumed, one chain of several): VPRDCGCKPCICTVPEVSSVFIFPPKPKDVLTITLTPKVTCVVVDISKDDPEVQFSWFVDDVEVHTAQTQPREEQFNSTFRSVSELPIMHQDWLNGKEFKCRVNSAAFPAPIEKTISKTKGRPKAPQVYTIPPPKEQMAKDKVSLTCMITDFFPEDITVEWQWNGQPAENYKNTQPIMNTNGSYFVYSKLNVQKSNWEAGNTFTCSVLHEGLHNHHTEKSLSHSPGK
T3 sequence (P01868 98-324 partner limits assumed, one chain of several): as above

As to “GGAFCEAVGCGPDRNFYGG [IL-6 peptide, reference compound]”, in experiment [1] (any tested concentration up to 20 μM), the “stimulation of TF-1 cell proliferation” value was “did not stimulate TF-1 cell proliferation”. With “EPO: recombinant human EPO (R & D Systems)”, the “half maximal response (ED50), TF-1 proliferation” value in experiment [1] (three days culture) was in the range of 0.05 to 0.1 unit/ml. Take “DFDVCRRGWVGHCKDWLSDEYASNPSYPVPHSYYLNPP [ERB1]”: the “binding to extracellular domain of TNFR” value in experiment [2] is given as “did not bind”. Moreover, the “binding to the Ig-EPOR probe” value in [3] was “bound specifically”. Further, the “binding to extracellular domain of IL-6R” value in experiment [4] was “did not bind”. Moreover, the “normalized relative affinity (Rel. Aff.)” value in experiment [5] was 1.0.

On to “Ig-EPOR: chimeric protein: ligand binding domain of human EPOR and hinge, CH2 and CH3 domains of murine IgG1”, for which, in experiment [6], the binding kinetics entry was “in good agreement with known affinity values”.

B1: 16-mer peptide 7N-2 (peptide)
peptide: EGCRRGWVGQCKAWFN
modifications: disulfide 3-11 (inferred)
notes: N-terminal truncation of ERB1-7
As usually defined, the IC50 is the concentration that inhibits the measured activity by half. High values mean weaker potency, low ones greater potency. As for B1, the IC50 in [7] was approximately 3.7 µM.

B2: 14-mer peptide 7N-4 (peptide)
peptide: CRRGWVGQCKAWFN
modifications: not fully specified (bridges); also: synthesized as (cyclic form there)
notes: as for B1
For the molecule B2, the binding result in [8] is listed as “no binding”.

B3: 15-mer peptide 7N-3 (peptide)
peptide: GCRRGWVGQCKAWFN
modifications: not fully specified (bridges); also: synthesized as (cyclic form there)
notes: as for B1
For the molecule B3, the binding result in [8] is “no binding”.

B4: IL-6 peptide (peptide)
peptide: GGAFCEAVGCGPDRNFYGG
notes: also called irrelevant IL-6 peptide
With B4, in [9], the binding result was “no binding”.

B5: 17-mer peptide 7N-1 (peptide)
peptide: REGCRRGWVGQCKAWFN
modifications: disulfide 4-12 (inferred)
notes: as for B1
B5: the IC50 in experiment [7] was 0.091 µM.

These data come from patent publication US6642353B1, “Peptide ligands for the erythropoietin receptor” (Chugai Seiyaku Kabushiki Kaisha, priority 2000, dated 2003).
